According to patent US20120029187A1, “HALOALKYLSULFONANILIDE DERIVATIVE” (Nissan Chemical Industries, Ltd., priority 2009, published 2012):

Key:
Format in all cases: in vivo
transplanted rice = experiment: Test Example 1: preemergence treatment under submerged conditions, effect on crop; conditions: dose 2.52 g/a
How it was run: (§1)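 Weed seeds and 2.5-leaf rice seedlings shared each flooded cup of alluvial soil. Dosing, expressed as g per are, was by pouring water-diluted emulsifiable concentrate onto the surface on sowing day. Mortality was graded 0 to 5 after three weeks' growth.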

common lambsquater [1] = experiment: Test Example 3: herbicidal effects in soil treatment; conditions: dose 3.2 g/a
How it was run: (§2)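 Seeds were sown in sterilized diluvial soil and covered with about 1.5 cm of soil. Compounds, formulated as emulsifiable concentrates and diluted with water, were sprayed evenly over the soil surface at set doses in g/a. Herbicidal effect was scored on a rating scale three weeks later.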

common chickweed [2] = experiment: as above; conditions: dose 3.2 g/a
How it was run: as §2

barnyardgrass [3] = experiment: as above; conditions: dose 3.2 g/a
How it was run: as §2

velvetleaf [4] = experiment: as above; conditions: dose 3.2 g/a
How it was run: as §2

water foxtail [5] = experiment: as above; conditions: dose 3.2 g/a
How it was run: as §2

redroot pigweed [6] = experiment: as above; conditions: dose 3.2 g/a
How it was run: as §2

giant foxtail [7] = experiment: as above; conditions: dose 3.2 g/a
How it was run: as §2

Italian ryegrass [8] = experiment: as above; conditions: dose 3.2 g/a
How it was run: as §2

common ragweed [9] = experiment: as above; conditions: dose 3.2 g/a
How it was run: as §2

large crabgrass [10] = experiment: as above; conditions: dose 3.2 g/a
How it was run: as §2

wild oat [11] = experiment: as above; conditions: dose 3.2 g/a
How it was run: as §2

bulrush [12] = experiment: Test Example 2: herbicidal effects during the vegetation period under submerged conditions; conditions: treatment during the vegetation period under submerged conditions; dose 2.52 g/a
How it was run: (§3)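 Barnyardgrass, bulrush and ducksalad were co-sown in alluvial soil flooded to 4 cm and grown in a greenhouse at 25 to 30° C. At the 1- or 2-leaf stage, water-diluted emulsifiable concentrates went onto the water surface at set doses (g/a). Herbicidal effect was scored three weeks later on a graded scale.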

barnyardgrass [13] = experiment: as above; conditions: treatment during the vegetation period under submerged conditions; dose 2.52 g/a
How it was run: as §3

ducksalad [14] = experiment: as above; conditions: treatment during the vegetation period under submerged conditions; dose 2.52 g/a
How it was run: as §3

common lambsquater [15] = experiment: Test Example 4: herbicidal effect in foliage treatment; conditions: dose 3.2 g/a, three weeks after application
How it was run: (§4)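 Weeds and crops sown in sterilized diluvial soil under ~1.5 cm cover and grown in greenhouse at 25 to 30° C. At 14 days, water-diluted emulsifiable concentrate sprayed onto foliage at set doses (g/a); herbicidal effect scored on a rating scale three weeks after application.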

common chickweed [16] = experiment: as above; conditions: dose 3.2 g/a, three weeks after application
How it was run: as §4

barnyardgrass [17] = experiment: as above; conditions: dose 3.2 g/a, three weeks after application
How it was run: as §4

posumbu knotweed = experiment: as above; conditions: dose 3.2 g/a, three weeks after application
How it was run: as §4

velvetleaf [18] = experiment: as above; conditions: dose 3.2 g/a, three weeks after application
How it was run: as §4

water foxtail [19] = experiment: as above; conditions: dose 3.2 g/a, three weeks after application
How it was run: as §4

redroot pigweed [20] = experiment: as above; conditions: dose 3.2 g/a, three weeks after application
How it was run: as §4

giant foxtail [21] = experiment: as above; conditions: dose 3.2 g/a, three weeks after application
How it was run: as §4

Italian ryegrass [22] = experiment: as above; conditions: dose 3.2 g/a, three weeks after application
How it was run: as §4

common ragweed [23] = experiment: as above; conditions: dose 3.2 g/a, three weeks after application
How it was run: as §4

beadstraw = experiment: as above; conditions: dose 3.2 g/a, three weeks after application
How it was run: as §4

large crabgrass [24] = experiment: as above; conditions: dose 3.2 g/a, three weeks after application
How it was run: as §4

wild oat [25] = experiment: as above; conditions: dose 3.2 g/a, three weeks after application
How it was run: as §4

bulrush [26] = experiment: Test Example 1: herbicidal effects in preemergence treatment under submerged conditions; conditions: dose 2.52 g/a
How it was run: as §1

barnyardgrass [27] = experiment: as above; conditions: dose 2.52 g/a
How it was run: as §1

ducksalad [28] = experiment: as above; conditions: dose 2.52 g/a
How it was run: as §1

## CC1(C)CN(Cc2ccccc2NS(=O)(=O)C(F)(F)F)C(=O)CO1 [Compound I-15]
Transplanted rice
  a: transplanted rice, effect on crop (evaluation scale 0-5): 1 (mortality of at least 5% and less than 20%)
Common lambsquater [1]
  L: common lambsquater, herbicidal effect (evaluation scale 0-5): 4 (mortality of at least 70% and less than 90%)
Common chickweed [2]
  N: common chickweed, herbicidal effect (evaluation scale 0-5): 4 (mortality of at least 70% and less than 90%)
Barnyardgrass [3]
  A: barnyardgrass, herbicidal effect (evaluation scale 0-5): 5 (mortality of 90% or above (nearly complete death))
Velvetleaf [4]
  I: velvetleaf, herbicidal effect (evaluation scale 0-5): 5 (mortality of 90% or above (nearly complete death))
Water foxtail [5]
  G: water foxtail, herbicidal effect (evaluation scale 0-5): 5 (mortality of 90% or above (nearly complete death))
Redroot pigweed [6]
  K: redroot pigweed, herbicidal effect (evaluation scale 0-5): 5 (mortality of 90% or above (nearly complete death))
Giant foxtail [7]
  E: giant foxtail, herbicidal effect (evaluation scale 0-5): 3 (mortality of at least 40% and less than 70%)
Italian ryegrass [8]
  H: Italian ryegrass, herbicidal effect (evaluation scale 0-5): 5 (mortality of 90% or above (nearly complete death))
Common ragweed [9]
  J: common ragweed, herbicidal effect (evaluation scale 0-5): 5 (mortality of 90% or above (nearly complete death))
Large crabgrass [10]
  D: large crabgrass, herbicidal effect (evaluation scale 0-5): 5 (mortality of 90% or above (nearly complete death))
Wild oat [11]
  F: wild oat, herbicidal effect (evaluation scale 0-5): 3 (mortality of at least 40% and less than 70%)
Bulrush [12]
  B: bulrush, herbicidal effect (evaluation scale 0-5): 5 (mortality of 90% or above (nearly complete death))
Barnyardgrass [13]
  A: barnyardgrass, herbicidal effect (evaluation scale 0-5): 5 (mortality of 90% or above (nearly complete death))
Ducksalad [14]
  C: ducksalad, herbicidal effect (evaluation scale 0-5): 5 (mortality of 90% or above (nearly complete death))
Common lambsquater [15]
  L: common lambsquater, herbicidal effect: 3 (mortality of at least 40% and less than 70%)
Common chickweed [16]
  N: common chickweed, herbicidal effect: 4 (mortality of at least 70% and less than 90%)
Barnyardgrass [17]
  A: barnyardgrass, herbicidal effect: 5 (mortality of 90% or above (nearly complete death))
Posumbu knotweed
  M: posumbu knotweed, herbicidal effect: 4 (mortality of at least 70% and less than 90%)
Velvetleaf [18]
  I: velvetleaf, herbicidal effect: 5 (mortality of 90% or above (nearly complete death))
Water foxtail [19]
  G: water foxtail, herbicidal effect: 5 (mortality of 90% or above (nearly complete death))
Redroot pigweed [20]
  K: redroot pigweed, herbicidal effect: 3 (mortality of at least 40% and less than 70%)
Giant foxtail [21]
  E: giant foxtail, herbicidal effect: 4 (mortality of at least 70% and less than 90%)
Italian ryegrass [22]
  H: Italian ryegrass, herbicidal effect: 4 (mortality of at least 70% and less than 90%)
Common ragweed [23]
  J: common ragweed, herbicidal effect: 4 (mortality of at least 70% and less than 90%)
beadstraw
  O: beadstraw, herbicidal effect: 4 (mortality of at least 70% and less than 90%)
Large crabgrass [24]
  D: large crabgrass, herbicidal effect: 4 (mortality of at least 70% and less than 90%)
Wild oat [25]
  F: wild oat, herbicidal effect: 1 (mortality of at least 5% and less than 20%)
Bulrush [26]
  B: bulrush, herbicidal effect (evaluation scale 0-5): 5 (mortality of 90% or above (nearly complete death))
Barnyardgrass [27]
  A: barnyardgrass, herbicidal effect (evaluation scale 0-5): 5 (mortality of 90% or above (nearly complete death))
Ducksalad [28]
  C: ducksalad, herbicidal effect (evaluation scale 0-5): 5 (mortality of 90% or above (nearly complete death))

## CC(C)COC(=O)N(c1ccccc1CN1COC(c2ccccc2)CC1=O)S(=O)(=O)C(F)(F)F (centres unmarked) [II-13]
Transplanted rice
  a: transplanted rice, effect on crop (evaluation scale 0-5): 0 (mortality of less than 5% (almost ineffective))
Common lambsquater [1]
  L: common lambsquater, herbicidal effect (evaluation scale 0-5): 0 (mortality of less than 5% (almost ineffective))
Common chickweed [2]
  N: common chickweed, herbicidal effect (evaluation scale 0-5): 0 (mortality of less than 5% (almost ineffective))
Barnyardgrass [3]
  A: barnyardgrass, herbicidal effect (evaluation scale 0-5): 3 (mortality of at least 40% and less than 70%)
Velvetleaf [4]
  I: velvetleaf, herbicidal effect (evaluation scale 0-5): 0 (mortality of less than 5% (almost ineffective))
Water foxtail [5]
  G: water foxtail, herbicidal effect (evaluation scale 0-5): 0 (mortality of less than 5% (almost ineffective))
Redroot pigweed [6]
  K: redroot pigweed, herbicidal effect (evaluation scale 0-5): 0 (mortality of less than 5% (almost ineffective))
Giant foxtail [7]
  E: giant foxtail, herbicidal effect (evaluation scale 0-5): 4 (mortality of at least 70% and less than 90%)
Italian ryegrass [8]
  H: Italian ryegrass, herbicidal effect (evaluation scale 0-5): 0 (mortality of less than 5% (almost ineffective))
Common ragweed [9]
  J: common ragweed, herbicidal effect (evaluation scale 0-5): 0 (mortality of less than 5% (almost ineffective))
Large crabgrass [10]
  D: large crabgrass, herbicidal effect (evaluation scale 0-5): 2 (mortality of at least 20% and less than 40%)
Wild oat [11]
  F: wild oat, herbicidal effect (evaluation scale 0-5): 0 (mortality of less than 5% (almost ineffective))
Bulrush [12]
  B: bulrush, herbicidal effect (evaluation scale 0-5): 5 (mortality of 90% or above (nearly complete death))
Barnyardgrass [13]
  A: barnyardgrass, herbicidal effect (evaluation scale 0-5): 5 (mortality of 90% or above (nearly complete death))
Ducksalad [14]
  C: ducksalad, herbicidal effect (evaluation scale 0-5): 5 (mortality of 90% or above (nearly complete death))
Common lambsquater [15]
  L: common lambsquater, herbicidal effect: 0 (mortality of less than 5% (almost ineffective))
Common chickweed [16]
  N: common chickweed, herbicidal effect: 3 (mortality of at least 40% and less than 70%)
Barnyardgrass [17]
  A: barnyardgrass, herbicidal effect: 2 (mortality of at least 20% and less than 40%)
Posumbu knotweed
  M: posumbu knotweed, herbicidal effect: 1 (mortality of at least 5% and less than 20%)
Velvetleaf [18]
  I: velvetleaf, herbicidal effect: 0 (mortality of less than 5% (almost ineffective))
Water foxtail [19]
  G: water foxtail, herbicidal effect: 0 (mortality of less than 5% (almost ineffective))
Redroot pigweed [20]
  K: redroot pigweed, herbicidal effect: 0 (mortality of less than 5% (almost ineffective))
Giant foxtail [21]
  E: giant foxtail, herbicidal effect: 0 (mortality of less than 5% (almost ineffective))
Italian ryegrass [22]
  H: Italian ryegrass, herbicidal effect: 0 (mortality of less than 5% (almost ineffective))
Common ragweed [23]
  J: common ragweed, herbicidal effect: 4 (mortality of at least 70% and less than 90%)
beadstraw
  O: beadstraw, herbicidal effect: 4 (mortality of at least 70% and less than 90%)
Large crabgrass [24]
  D: large crabgrass, herbicidal effect: 2 (mortality of at least 20% and less than 40%)
Wild oat [25]
  F: wild oat, herbicidal effect: 0 (mortality of less than 5% (almost ineffective))
Bulrush [26]
  B: bulrush, herbicidal effect (evaluation scale 0-5): 5 (mortality of 90% or above (nearly complete death))
Barnyardgrass [27]
  A: barnyardgrass, herbicidal effect (evaluation scale 0-5): 5 (mortality of 90% or above (nearly complete death))
Ducksalad [28]
  C: ducksalad, herbicidal effect (evaluation scale 0-5): 5 (mortality of 90% or above (nearly complete death))
